Data: the NIST ThermoML archive (doi:10.1016/j.jct.2019.06.028)

How the values were obtained:
[1] = 101 kPa, Liquid, Vibrating tube method
[2] = xn = mol fraction of the nth substance listed; settings: 101 kPa, Liquid, Vibrating tube method

O [water]
[1]
Settings | mass density [kg/m3]
278.15 K | 999.96
323.15 K | 988.03

O [water] + CC(N)=O
[2], x2 = 0
Settings | mass density [kg/m3]
278.15 K | 999.96
323.15 K | 988.03

CC(N)=O [ethanamide] + O
mass density [kg/m3], [2]
Settings | 278.15 K | 288.15 K | 298.15 K | 308.15 K | 323.15 K
x1 = 0.0045 | 1001.13 | 1000.13 | 997.95 | 994.84 | 988.72
x1 = 0.00696 | 1001.77 | 1000.68 | 998.45 | 995.28 | 989.09
x1 = 0.01255 | 1003.21 | 1001.93 | 999.55 | 996.27 | 989.94
x1 = 0.0221 | 1005.68 | 1004.08 | 1001.45 | 997.97 | 991.4
x1 = 0.03704 | 1009.47 | 1007.37 | 1004.39 | 1000.6 | 993.65
x1 = 0.04992 | 1012.61 | 1010.12 | 1006.82 | 1002.79 | 995.48
x1 = 0.0607 | 1015.11 | 1012.3 | 1008.75 | 1004.54 | 996.95
x1 = 0.07958 | 1019.24 | 1015.92 | 1011.95 | 1007.37 | 999.36
x1 = 0.09463 | 1022.32 | 1018.65 | 1014.35 | 1009.49 | 1001.16
x1 = 0.1128 | 1025.82 | 1021.71 | 1017.06 | 1011.89 | 1003.22
x1 = 0.1325 | 1029.34 | 1024.81 | 1019.79 | 1014.32 | 1005.31
x1 = 0.159 | 1033.54 | 1028.5 | 1023.07 | 1017.25 | 1007.78
x1 = 0.1991 | 1038.57 | 1032.99 | 1027.09 | 1020.83 | 1010.87
x1 = 0.2503 | 1043.75 | 1037.61 | 1031.18 | 1024.52 | 1013.96
x1 = 0.3039 | – | 1041.06 | 1034.29 | 1027.28 | 1016.34
x1 = 0.3456 | – | 1043.19 | 1036.18 | 1028.97 | 1017.76
x1 = 0.3875 | – | – | 1037.52 | 1030.2 | 1018.81
